# According to ChEMBL document CHEMBL3797029, “Purinylpyridinylamino-based DFG-in/αC-helix-out B-Raf inhibitors: Applying mutant versus wild-type B-Raf selectivity indices for compound profiling” (Bioorg Med Chem, 2016):
# How the values were obtained:
# [1] = biological target: Rho-associated protein kinase 2 (Homo sapiens) (UniProt O75116); experiment: Inhibition of partial length wild type human ROCK2 expressed in mammalian system assessed as enzyme activity at 1 uM relative to control; design: scale not given: the % may be the effect or the level left
# [2] = biological target: Aurora kinase A (Homo sapiens) (UniProt O14965); experiment: Inhibition of partial length wild type human AURKA expressed in mammalian system assessed as enzyme activity at 1 uM relative to control; design: scale not given: the % may be the effect or the level left
# [3] = biological target: Phosphatidylinositol 4,5-bisphosphate 3-kinase catalytic subunit alpha isoform (Homo sapiens) (UniProt P42336); experiment: Inhibition of partial length wild type human PIK3CA expressed in mammalian system assessed as enzyme activity at 1 uM relative to control; design: scale not given: the % may be the effect or the level left
# [4] = biological target: Epithelial discoidin domain-containing receptor 1 (Homo sapiens) (UniProt Q08345); experiment: Inhibition of partial length wild type human DDR1 expressed in bacterial system assessed as enzyme activity at 1 uM relative to control; design: scale not given: the % may be the effect or the level left
# Chain of Epithelial discoidin domain-containing receptor 1 (Homo sapiens) (Q08345 whole entry, the tested form may be a part): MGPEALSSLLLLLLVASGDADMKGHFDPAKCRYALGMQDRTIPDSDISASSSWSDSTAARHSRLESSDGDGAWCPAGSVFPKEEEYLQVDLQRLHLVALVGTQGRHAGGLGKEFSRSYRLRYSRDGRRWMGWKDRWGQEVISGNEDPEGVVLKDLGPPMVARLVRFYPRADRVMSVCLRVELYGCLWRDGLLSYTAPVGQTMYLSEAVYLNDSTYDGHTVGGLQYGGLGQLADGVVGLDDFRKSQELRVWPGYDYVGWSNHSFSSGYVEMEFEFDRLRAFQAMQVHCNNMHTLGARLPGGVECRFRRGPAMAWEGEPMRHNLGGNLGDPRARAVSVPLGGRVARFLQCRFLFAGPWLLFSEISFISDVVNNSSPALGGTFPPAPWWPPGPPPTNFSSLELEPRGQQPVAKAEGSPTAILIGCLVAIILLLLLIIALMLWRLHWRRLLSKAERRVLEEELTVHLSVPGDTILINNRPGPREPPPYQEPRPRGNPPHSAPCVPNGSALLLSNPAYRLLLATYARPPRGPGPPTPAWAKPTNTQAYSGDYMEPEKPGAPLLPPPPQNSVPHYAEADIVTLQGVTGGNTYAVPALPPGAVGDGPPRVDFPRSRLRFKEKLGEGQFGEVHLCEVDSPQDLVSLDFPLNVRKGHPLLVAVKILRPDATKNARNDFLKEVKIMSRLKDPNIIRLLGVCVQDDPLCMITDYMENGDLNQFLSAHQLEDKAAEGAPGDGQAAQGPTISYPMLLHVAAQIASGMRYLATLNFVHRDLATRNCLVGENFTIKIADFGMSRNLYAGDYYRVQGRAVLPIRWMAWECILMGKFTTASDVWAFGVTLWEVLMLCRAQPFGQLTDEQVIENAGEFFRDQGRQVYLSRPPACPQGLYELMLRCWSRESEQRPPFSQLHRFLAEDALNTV
# [5] = biological target: Mitogen-activated protein kinase kinase kinase 1 (Homo sapiens) (UniProt Q13233); experiment: Inhibition of partial length wild type human MAP3K1 expressed in mammalian system assessed as enzyme activity at 1 uM relative to control; design: scale not given: the % may be the effect or the level left
# Chain of Mitogen-activated protein kinase kinase kinase 1 (Homo sapiens) (Q13233 whole entry): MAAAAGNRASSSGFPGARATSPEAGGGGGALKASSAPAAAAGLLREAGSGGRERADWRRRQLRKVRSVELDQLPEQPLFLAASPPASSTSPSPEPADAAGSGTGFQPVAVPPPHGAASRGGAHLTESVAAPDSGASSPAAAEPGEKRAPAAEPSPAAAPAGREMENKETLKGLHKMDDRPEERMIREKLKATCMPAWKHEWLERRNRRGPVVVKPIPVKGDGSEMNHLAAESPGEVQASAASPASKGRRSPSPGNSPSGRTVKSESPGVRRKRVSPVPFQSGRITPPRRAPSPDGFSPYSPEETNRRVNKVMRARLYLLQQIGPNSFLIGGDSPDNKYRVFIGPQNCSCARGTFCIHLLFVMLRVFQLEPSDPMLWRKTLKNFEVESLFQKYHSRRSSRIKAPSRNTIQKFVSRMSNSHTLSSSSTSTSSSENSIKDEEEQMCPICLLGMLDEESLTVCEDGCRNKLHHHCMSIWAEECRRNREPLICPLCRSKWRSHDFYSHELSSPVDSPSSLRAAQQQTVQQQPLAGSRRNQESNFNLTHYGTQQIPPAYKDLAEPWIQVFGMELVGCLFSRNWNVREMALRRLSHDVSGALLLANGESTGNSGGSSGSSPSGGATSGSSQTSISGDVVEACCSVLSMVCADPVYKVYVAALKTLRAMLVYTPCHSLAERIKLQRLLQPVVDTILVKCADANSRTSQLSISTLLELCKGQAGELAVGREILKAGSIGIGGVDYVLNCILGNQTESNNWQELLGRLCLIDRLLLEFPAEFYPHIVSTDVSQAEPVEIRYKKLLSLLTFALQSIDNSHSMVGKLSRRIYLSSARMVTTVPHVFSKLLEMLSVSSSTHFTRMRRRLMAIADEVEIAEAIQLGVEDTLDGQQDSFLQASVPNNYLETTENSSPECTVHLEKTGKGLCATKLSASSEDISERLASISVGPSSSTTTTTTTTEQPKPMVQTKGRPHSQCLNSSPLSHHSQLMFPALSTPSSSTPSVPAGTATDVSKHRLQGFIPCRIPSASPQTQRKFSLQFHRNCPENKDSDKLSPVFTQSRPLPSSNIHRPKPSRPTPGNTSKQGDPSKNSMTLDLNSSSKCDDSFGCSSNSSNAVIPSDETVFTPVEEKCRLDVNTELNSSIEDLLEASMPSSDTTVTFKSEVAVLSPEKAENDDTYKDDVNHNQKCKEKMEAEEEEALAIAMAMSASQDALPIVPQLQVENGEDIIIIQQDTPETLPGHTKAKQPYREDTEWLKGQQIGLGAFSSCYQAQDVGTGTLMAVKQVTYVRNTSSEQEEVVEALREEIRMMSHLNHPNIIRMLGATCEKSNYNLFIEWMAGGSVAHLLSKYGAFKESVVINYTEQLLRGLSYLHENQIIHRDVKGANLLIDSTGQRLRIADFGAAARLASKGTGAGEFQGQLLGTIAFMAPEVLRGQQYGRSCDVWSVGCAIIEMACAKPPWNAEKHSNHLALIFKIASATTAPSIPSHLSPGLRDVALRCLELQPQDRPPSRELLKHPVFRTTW
# [6] = biological target: Tyrosine-protein kinase ABL1 (Homo sapiens) (UniProt P00519); experiment: Inhibition of partial length wild type nonphosphorylated human ABL1 expressed in mammalian system assessed as enzyme activity at 1 uM relative to control; design: scale not given: the % may be the effect or the level left
# [7] = biological target: MAP kinase-activated protein kinase 2 (Homo sapiens) (UniProt P49137); experiment: Inhibition of partial length wild type human MAPKAPK2 expressed in bacterial system assessed as enzyme activity at 1 uM relative to control; design: scale not given: the % may be the effect or the level left
# [8] = biological target: Serine/threonine-protein kinase 32B (Homo sapiens) (UniProt Q9NY57); experiment: Inhibition of full length wild type human YANK2 expressed in bacterial system assessed as enzyme activity at 1 uM relative to control; design: scale not given: the % may be the effect or the level left
# [9] = biological target: LIM domain kinase 1 (Homo sapiens) (UniProt P53667); experiment: Inhibition of full length wild type human LIMK1 expressed in bacterial system assessed as enzyme activity at 1 uM relative to control; design: scale not given: the % may be the effect or the level left
# [10] = biological target: Wee1-like protein kinase (Homo sapiens) (UniProt P30291); experiment: Inhibition of partial length wild type human WEE1 expressed in bacterial system assessed as enzyme activity at 1 uM relative to control; design: scale not given: the % may be the effect or the level left
# [11] = biological target: T1, Serine/threonine-protein kinase B-raf (Homo sapiens, UniProt P15056); experiment: Inhibition of wild type B-Raf (unknown origin) assessed as MEK1 phosphorylation using MEK1-Avitag as substrate after 1 hr by HTRF assay
# T1 sequence (P15056 whole entry): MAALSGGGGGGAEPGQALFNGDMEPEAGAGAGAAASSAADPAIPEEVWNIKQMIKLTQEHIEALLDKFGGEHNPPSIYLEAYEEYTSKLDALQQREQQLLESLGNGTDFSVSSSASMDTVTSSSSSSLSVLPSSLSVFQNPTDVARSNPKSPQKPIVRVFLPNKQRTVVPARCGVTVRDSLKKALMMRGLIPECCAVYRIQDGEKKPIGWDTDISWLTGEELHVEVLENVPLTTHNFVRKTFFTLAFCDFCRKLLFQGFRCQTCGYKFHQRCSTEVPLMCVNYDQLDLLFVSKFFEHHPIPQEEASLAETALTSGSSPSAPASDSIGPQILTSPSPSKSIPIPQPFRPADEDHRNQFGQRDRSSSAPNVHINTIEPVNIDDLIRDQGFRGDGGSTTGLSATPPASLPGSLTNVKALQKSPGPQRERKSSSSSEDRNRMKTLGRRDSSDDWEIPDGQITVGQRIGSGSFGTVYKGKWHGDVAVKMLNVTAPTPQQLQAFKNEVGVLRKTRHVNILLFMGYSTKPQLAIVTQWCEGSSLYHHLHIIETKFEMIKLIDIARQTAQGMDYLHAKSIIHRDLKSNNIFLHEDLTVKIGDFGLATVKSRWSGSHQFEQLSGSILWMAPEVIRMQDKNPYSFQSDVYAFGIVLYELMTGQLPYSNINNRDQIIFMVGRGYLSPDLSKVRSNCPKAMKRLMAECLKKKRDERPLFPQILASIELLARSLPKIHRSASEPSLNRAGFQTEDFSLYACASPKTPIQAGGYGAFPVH
# [12] = biological target: Mitogen-activated protein kinase kinase kinase kinase 4 (Homo sapiens) (UniProt O95819); experiment: Inhibition of partial length wild type human MAP4K4 expressed in bacterial system assessed as enzyme activity at 1 uM relative to control; design: scale not given: the % may be the effect or the level left
# [13] = biological target: T2, Serine/threonine-protein kinase B-raf (Homo sapiens, UniProt P15056, V600E); experiment: Inhibition of B-Raf V600E mutant (unknown origin) assessed as MEK1 phosphorylation using MEK1-Avitag as substrate after 1 hr by HTRF assay
# T2 sequence (P15056 2-766 V600E limits assumed): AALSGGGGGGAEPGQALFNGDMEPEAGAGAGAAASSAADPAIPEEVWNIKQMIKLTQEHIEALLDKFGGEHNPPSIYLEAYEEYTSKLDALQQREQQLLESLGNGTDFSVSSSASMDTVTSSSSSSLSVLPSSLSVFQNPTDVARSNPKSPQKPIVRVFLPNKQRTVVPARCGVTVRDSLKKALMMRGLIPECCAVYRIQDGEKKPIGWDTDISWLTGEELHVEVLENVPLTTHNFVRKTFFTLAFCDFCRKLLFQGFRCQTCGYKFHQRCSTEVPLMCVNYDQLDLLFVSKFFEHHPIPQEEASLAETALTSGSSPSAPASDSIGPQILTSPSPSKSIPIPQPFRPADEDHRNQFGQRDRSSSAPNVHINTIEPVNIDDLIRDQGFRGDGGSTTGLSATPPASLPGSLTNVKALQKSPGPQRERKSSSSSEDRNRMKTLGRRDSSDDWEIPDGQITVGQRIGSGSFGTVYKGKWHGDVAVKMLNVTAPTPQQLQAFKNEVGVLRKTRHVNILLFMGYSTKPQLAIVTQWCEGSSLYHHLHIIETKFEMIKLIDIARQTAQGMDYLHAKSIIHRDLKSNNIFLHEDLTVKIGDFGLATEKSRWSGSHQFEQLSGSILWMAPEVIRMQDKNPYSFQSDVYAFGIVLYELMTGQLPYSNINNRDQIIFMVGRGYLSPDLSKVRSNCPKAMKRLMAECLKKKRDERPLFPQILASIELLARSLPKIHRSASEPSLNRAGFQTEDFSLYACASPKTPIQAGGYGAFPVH
# [14] = biological target: T1, Serine/threonine-protein kinase B-raf; experiment: Inhibition of wild type B-Raf in human MIAPaCa2 cells assessed as reduction in ERK phosphorylation preincubated for 1 hr by Western blot method; type: cell-based, MIA PaCa-2
# [15] = biological target: High affinity nerve growth factor receptor (Homo sapiens) (UniProt P04629); experiment: Inhibition of partial length wild type human TRKA expressed in mammalian system assessed as enzyme activity at 1 uM relative to control; design: scale not given: the % may be the effect or the level left
# [16] = biological target: TGF-beta receptor type-1 (Homo sapiens) (UniProt P36897); experiment: Inhibition of partial length wild type human TGFBR1 expressed in bacterial system assessed as enzyme activity at 1 uM relative to control; design: scale not given: the % may be the effect or the level left
# [17] = biological target: Calcium/calmodulin-dependent protein kinase type II subunit delta (Homo sapiens) (UniProt Q13557); experiment: Inhibition of partial length wild type human CAMK2delta expressed in bacterial system assessed as enzyme activity at 1 uM relative to control; design: scale not given: the % may be the effect or the level left
# [18] = biological target: Dual specificity protein kinase CLK1 (Homo sapiens) (UniProt P49759); experiment: Inhibition of full length wild type human CLK1 expressed in bacterial system assessed as enzyme activity at 1 uM relative to control; design: scale not given: the % may be the effect or the level left
# [19] = biological target: T2, Serine/threonine-protein kinase B-raf; experiment: Inhibition of B-Raf V600E mutant in human A375 cells assessed as ERK phosphorylation preincubated for 1 hr by Western blot method; type: cell-based, A-375
# [20] = biological target: Mitogen-activated protein kinase 12 (Homo sapiens) (UniProt P53778); experiment: Inhibition of full length wild type human p38gamma expressed in bacterial system assessed as enzyme activity at 1 uM relative to control; design: scale not given: the % may be the effect or the level left
# [21] = biological target: Interleukin-1 receptor-associated kinase 4 (Homo sapiens) (UniProt Q9NWZ3); experiment: Inhibition of partial length wild type human IRAK4 expressed in mammalian system assessed as enzyme activity at 1 uM relative to control; design: scale not given: the % may be the effect or the level left
# Chain of Interleukin-1 receptor-associated kinase 4 (Homo sapiens) (Q9NWZ3 whole entry): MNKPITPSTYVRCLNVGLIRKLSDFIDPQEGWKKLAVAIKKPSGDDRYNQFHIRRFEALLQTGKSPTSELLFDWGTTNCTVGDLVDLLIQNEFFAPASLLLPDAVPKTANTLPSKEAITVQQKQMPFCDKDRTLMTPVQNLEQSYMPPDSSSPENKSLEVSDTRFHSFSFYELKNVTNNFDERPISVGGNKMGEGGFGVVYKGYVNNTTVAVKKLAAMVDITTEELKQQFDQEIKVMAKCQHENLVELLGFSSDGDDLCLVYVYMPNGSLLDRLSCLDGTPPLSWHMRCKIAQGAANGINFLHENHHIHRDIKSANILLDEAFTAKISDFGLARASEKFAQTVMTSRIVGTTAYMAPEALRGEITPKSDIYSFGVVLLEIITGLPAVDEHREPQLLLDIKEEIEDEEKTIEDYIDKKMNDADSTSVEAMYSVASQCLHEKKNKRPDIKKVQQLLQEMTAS
# [22] = biological target: Glycogen synthase kinase-3 beta (Homo sapiens) (UniProt P49841); experiment: Inhibition of full length wild type human GSK3beta expressed in mammalian system assessed as enzyme activity at 1 uM relative to control; design: scale not given: the % may be the effect or the level left
# [23] = biological target: cGMP-dependent protein kinase 1 (Homo sapiens) (UniProt Q13976); experiment: Inhibition of partial length wild type human PRKG1 expressed in bacterial system assessed as enzyme activity at 1 uM relative to control; design: scale not given: the % may be the effect or the level left
# [24] = biological target: 5'-AMP-activated protein kinase catalytic subunit alpha-1 (Homo sapiens) (UniProt Q13131); experiment: Inhibition of partial length wild type human AMPKalpha1 expressed in bacterial system assessed as enzyme activity at 1 uM relative to control; design: scale not given: the % may be the effect or the level left
# [25] = biological target: ALK tyrosine kinase receptor (Homo sapiens) (UniProt Q9UM73); experiment: Inhibition of partial length wild type human ALK expressed in mammalian system assessed as enzyme activity at 1 uM relative to control; design: scale not given: the % may be the effect or the level left
# [26] = biological target: Calcium/calmodulin-dependent protein kinase type IV (Homo sapiens) (UniProt Q16566); experiment: Inhibition of partial length wild type human CAMK4 expressed in bacterial system assessed as enzyme activity at 1 uM relative to control; design: scale not given: the % may be the effect or the level left
# [27] = biological target: Non-receptor tyrosine-protein kinase TYK2 (Homo sapiens) (UniProt P29597); experiment: Inhibition of partial length wild type human TYK2 (catalytic JH1 domain) expressed in mammalian system assessed as enzyme activity at 1 uM relative to control; design: scale not given: the % may be the effect or the level left
# [28] = biological target: Mitogen-activated protein kinase kinase kinase 7 (Homo sapiens) (UniProt O43318); experiment: Inhibition of partial length wild type human TAK1 expressed in mammalian system assessed as enzyme activity at 1 uM relative to control; design: scale not given: the % may be the effect or the level left
# [29] = biological target: Bone morphogenetic protein receptor type-1A (Homo sapiens) (UniProt P36894); experiment: Inhibition of partial length wild type human BMPR1A expressed in bacterial system assessed as enzyme activity at 1 uM relative to control; design: scale not given: the % may be the effect or the level left
# Chain of Bone morphogenetic protein receptor type-1A (Homo sapiens) (P36894 whole entry): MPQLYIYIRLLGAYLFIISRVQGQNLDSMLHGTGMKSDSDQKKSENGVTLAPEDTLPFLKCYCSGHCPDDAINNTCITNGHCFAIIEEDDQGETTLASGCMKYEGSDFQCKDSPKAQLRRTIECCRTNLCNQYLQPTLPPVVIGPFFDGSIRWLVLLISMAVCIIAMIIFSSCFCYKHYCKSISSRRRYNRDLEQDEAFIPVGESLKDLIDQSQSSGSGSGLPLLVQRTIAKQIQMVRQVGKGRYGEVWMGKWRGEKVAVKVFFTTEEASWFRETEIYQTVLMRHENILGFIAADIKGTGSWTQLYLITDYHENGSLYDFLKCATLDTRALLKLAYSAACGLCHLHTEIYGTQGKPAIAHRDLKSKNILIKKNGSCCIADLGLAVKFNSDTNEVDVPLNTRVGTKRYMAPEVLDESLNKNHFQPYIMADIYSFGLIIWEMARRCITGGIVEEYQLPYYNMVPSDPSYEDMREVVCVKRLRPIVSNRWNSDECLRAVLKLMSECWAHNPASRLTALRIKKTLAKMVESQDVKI
# [30] = biological target: Dual specificity mitogen-activated protein kinase kinase 3 (Homo sapiens) (UniProt P46734); experiment: Inhibition of full length wild type human MEK3 expressed in mammalian system assessed as enzyme activity at 1 uM relative to control; design: scale not given: the % may be the effect or the level left
# [31] = biological target: Serine/threonine-protein kinase PAK 2 (Homo sapiens) (UniProt Q13177); experiment: Inhibition of partial length wild type human PAK2 expressed in bacterial system assessed as enzyme activity at 1 uM relative to control; design: scale not given: the % may be the effect or the level left
# [32] = biological target: Protein-tyrosine kinase 6 (Homo sapiens) (UniProt Q13882); experiment: Inhibition of partial length wild type human BRK expressed in bacterial system assessed as enzyme activity at 1 uM relative to control; design: scale not given: the % may be the effect or the level left
smiles,measurement,setting,value
CN(C)S(=O)(=O)Nc1ccc(F)c(Nc2ncccc2-c2ncnc3[nH]cnc23)c1F,Activity,[1],92%
same,Activity,[2],73%
same,Activity,[3],100%
same,Activity,[4],88%
same,Activity,[5],83%
same,Activity,[6],96%
same,Activity,[7],83%
same,Activity,[8],100%
same,Activity,[9],57%
same,Activity,[10],90%
same,IC50,[11],90 nM
same,Activity,[12],98%
same,IC50,[13],8 nM
same,EC50,[14],1780 nM
same,Activity,[15],100%
same,Activity,[16],65%
same,Activity,[17],83%
same,Activity,[18],90%
same,IC50,[19],54 nM
same,Activity,[20],100%
same,Activity,[21],99%
same,Activity,[22],100%
same,Activity,[23],92%
same,Activity,[24],92%
same,Activity,[25],96%
same,Activity,[26],83%
same,Activity,[27],100%
same,Activity,[28],70%
same,Activity,[29],63%
same,Activity,[30],100%
same,Activity,[31],94%
same,Activity,[32],14%
